From ChEMBL document CHEMBL2169751, “Synthesis and biological evaluation of novel pyrazole derivatives with anticancer activity” (2011)

Test system: Mycobacterium tuberculosis
Experiment: Antimycobacterial activity against Mycobacterium tuberculosis H37Rv ATCC 27294 after 7 days by Resazurin assay
Format: functional
Parameters: concentration or dose not given beside the values

Compound: O=C(N/N=C/c1ccncc1)c1cnc2c(C(F)(F)F)cccc2c1O
- inhibition (INH): 0%

Compound: CO[C@H]1/C=C/O[C@@]2(C)Oc3c(C)c(O)c4c(O)c(c(/C=N/N5CCN(C)CC5)c(O)c4c3C2=O)NC(=O)/C(C)=C\C=C\[C@H](C)[C@H](O)[C@@H](C)[C@@H](O)[C@@H](C)[C@H](OC(C)=O)[C@@H]1C [RIFAMPIN]
- inhibition (INH): 95%

Compound: O=C(N/N=C/c1cnc[nH]1)c1cnc2c(C(F)(F)F)cccc2c1O
- inhibition (INH): 90%

Compound: NNC(=O)c1ccncc1 [ISONIAZID]
- inhibition (INH): 95%

Compound: O=C(NNC(=S)Nc1ccccc1F)c1cnc2c(C(F)(F)F)cccc2c1O
- inhibition (INH): 95%

Compound: COc1ccc2[nH]cc(/C=N/NC(=O)c3cnc4c(C(F)(F)F)cccc4c3O)c2c1
- inhibition (INH): 95%

Compound: Cc1ccc(/C=N/NC(=O)c2cnc3c(C(F)(F)F)cccc3c2O)cc1
- inhibition (INH): <90%

Compound: Cc1[nH]cnc1/C=N/NC(=O)c1cnc2c(C(F)(F)F)cccc2c1O
- inhibition (INH): 90%

Compound: COc1ccc(/C=N/NC(=O)c2cnc3c(C(F)(F)F)cccc3c2O)c(F)c1
- inhibition (INH): 95%

Compound: O=C(N/N=C/c1ccc2c(c1)CCO2)c1cnc2c(C(F)(F)F)cccc2c1O
- inhibition (INH): 0%

Compound: COc1ccc(NC(=O)NNC(=O)c2cnc3c(C(F)(F)F)cccc3c2O)cc1
- inhibition (INH): 90%

Compound: COC(=O)Cc1cc(/C=N/NC(=O)c2cnc3c(C(F)(F)F)cccc3c2O)co1
- inhibition (INH): <90%

Compound: O=C(NNC(=S)Nc1cccnc1)c1cnc2c(C(F)(F)F)cccc2c1O
- inhibition (INH): 0%

Compound: O=C(NNC(=O)c1cnc2c(C(F)(F)F)cccc2c1O)Nc1cccc(Cl)c1
- inhibition (INH): <90%

Compound: Cc1cccc2c(/C=N/NC(=O)c3cnc4c(C(F)(F)F)cccc4c3O)c[nH]c12
- inhibition (INH): 95%

Compound: Cc1cc(C)cc(NC(=O)NNC(=O)c2cnc3c(C(F)(F)F)cccc3c2O)c1
- inhibition (INH): <90%

Compound: Cc1ccc(NC(=S)NNC(=O)c2cnc3c(C(F)(F)F)cccc3c2O)cc1
- inhibition (INH): 0%

Compound: CCc1ccc(NC(=O)NNC(=O)c2cnc3c(C(F)(F)F)cccc3c2O)cc1
- inhibition (INH): <90%

Compound: Cc1ccc(NC(=O)NNC(=O)c2cnc3c(C(F)(F)F)cccc3c2O)cc1
- inhibition (INH): 90%

Compound: O=C(N/N=C/c1cc(F)ccc1O)c1cnc2c(C(F)(F)F)cccc2c1O
- inhibition (INH): <90%

Compound: COc1ccc(/C=N/NC(=O)c2cnc3c(C(F)(F)F)cccc3c2O)cc1O
- inhibition (INH): <90%

Compound: CSc1ccccc1/C=N/NC(=O)c1cnc2c(C(F)(F)F)cccc2c1O
- inhibition (INH): 0%

Compound: COc1ccc(/C=N/NC(=O)c2cnc3c(C(F)(F)F)cccc3c2O)cc1
- inhibition (INH): 90%

Compound: COc1ccc(NC(=S)NNC(=O)c2cnc3c(C(F)(F)F)cccc3c2O)cc1
- inhibition (INH): <90%

Compound: O=C(NNC(=S)Nc1cccc(Cl)c1)c1cnc2c(C(F)(F)F)cccc2c1O
- inhibition (INH): <90%

Compound: Cn1cccc1/C=N\NC(=O)c1cnc2c(C(F)(F)F)cccc2c1O
- inhibition (INH): 90%

Compound: O=C(N/N=C/c1ccc(OC(F)(F)C(F)F)cc1)c1cnc2c(C(F)(F)F)cccc2c1O
- inhibition (INH): <90%

Compound: Cn1nnc2cc(/C=N\NC(=O)c3cnc4c(C(F)(F)F)cccc4c3O)ccc21
- inhibition (INH): <90%
